Where two headings read alike, the source gives them in different places.
Key:
Staphylococcus aureus [1] = assay: Control: microbicidal activity of the amino acid or analogue alone (no glucose, MPO, glucose oxidase) in the presence of blood; type: cell-based; settings: for log reduction at 5000 µM: Staphylococcus aureus, 1 h, read-out: Log Reduction 60 min
Text: As a control to determine the microbicidal activity of the amino acids alone, the foregoing procedure was followed without replication, except in the absence of glucose, MPO, and glucose oxidase.

Staphylococcus aureus [2] = assay: Microbicidal activity of the myeloperoxidase system (p-MPO, glucose oxidase, glucose) with amino acids in the presence of blood, CFU plate counts; synergy determination from these CFU; type: cell-based; settings: for Average Viability CFU/ml 60 min / Log Reduction 60 min: amino acid 5 mM (none: 0 mM); for Average Viability CFU/ml 50 min / Log Reduction 50 min: MPO 4.7 U/ml, GO 4.2 U/ml
Protocol: Bacterial suspensions, specifically Staphylococcus aureus in this example, were prepared by the shake flask method to achieve late log to early stationary phase growth. Bacteria were grown 24 hours in trypticase soy broth (TSB) at 35° C. The cultures were centrifuged at 4,000 rpm for 10 minutes and the supernatants removed. The pellet was collected and washed twice with sterile 0.9% normal saline (NS). The washed microorganisms were suspended and diluted with normal saline to a 3 McFarland standard, i.e., approximately 10^9 bacteria colony forming units (CFU) per mL. Actual colony counts are confirmed by serial dilutions (10^−1 to 10^−5 or 10^−6) plated on TSA and incubated overnight at 35° C. To obtain an approximate final working target inoculum of 10^7 CFU/mL, 15 microliters of organisms per mL of final reaction mixture are used.
Glucose oxidase (GO) from Aspergillus Niger was purchased from Biozyme, Inc., UK, Cat #GO3A, 270 U/mg). Porcine Myeloperoxidase (p-MPO) (Exoxemis, Inc., Little Rock, Ark. U.S.A., 375 U/mg). Sterile stock solutions of D-glucose and sodium chloride were prepared and used at a final concentration of 150 mM each. L-Lysine hydrochloride (Spectrum Chemical Cat #L1142) was prepared as a 100 mM stock solution. Catalase (Sigma, Cat #C-40) was prepared as a 1% stock solution in sterile 0.9% normal saline. Blood was collected by venipuncture and used as whole blood within the same day.
Staphylococcus aureus were used to give a final target concentration of 2-3×10^7 CFU (7.4 log 10) per mL and venous whole blood was used to give a final concentration of 3%. Glucose was added to the reaction mixtures to a final concentration of 150 mM, which initiated the microbicidal reaction. The final volume of the reaction mixtures was 1 mL. The reactions were allowed to run from 30 minutes to 2 hours, as needed, at room temperature or at 37° C. in a dry bath. At the specified time points the reaction mixtures were treated with 100 microliters of a catalase solution, containing a minimum of 100 units/μL, to consume remaining peroxide and terminate the oxidative killing. Serial dilution plate counts were performed from the contents of each vial in sterile saline and inoculated onto trypticase soy agar (TSA) for quantitative culture. Plates were then incubated at 37° C. and counts taken at 24 hours. […] The results are shown in Table 1, as the average of 2 replicates.
The amino acids alone, in the absence of MPO were tested to rule out their microbicidal activity. The results are shown in Table 2 to Table 6, as the average of 2 replicates.
The amino acid analogues alone, in the absence of MPO, were tested to rule out their microbicidal activity. […]
The effect of two-way combinations of individual amino acids with L-isoleucine, as potential enhancing agents, for MPO microbicidal action in the presence of blood, was therefore examined by following the procedure of Example 5.
The Actual CFU observed for the pair is then divided by the Predicted CFU and multiplied by 100 to calculate the % of Predicted value. This value is then to be compared to the threshold value, discussed in the next section, to determine whether the pair are synergistic, antagonistic, or additive.
Calculation of appropriate threshold values for determination of synergism and antagonism was based upon the variability of replicated CFU survivor measures.

[3] = amino acid alone 5 mM, MPO 0, GO 0, no glucose, blood, without replication
[4] = MPO 100 μg/mL, AA 20 mM, 30 min
[5] = MPO 100 μg/mL, AA 20 mM, 60 min
[6] = Table 5, MPO 38 U/ml, GO 33.3 U/ml, blood
[7] = Table 10, single amino acid 2.5 mM, in the presence of blood, 50 min
[8] = Table 11, single amino acid 2.5 mM, in the presence of blood, 50 min
[9] = Table 14, single amino acid 2.5 mM, in the presence of blood, 50 min
[10] = Table 4, MPO 38 U/ml, GO 33.3 U/ml, blood
[11] = Table 19, amino acid (racemic, L- or D-form) 2.5 mM, 50 min
[12] = single amino acid 2.5 mM, blood
[13] = Table 13, single amino acid 2.5 mM, in the presence of blood, 50 min

Compound	Average Viability CFU/ml 60 min (Staphylococcus aureus [1]; [3])	Log 10 (CFU + 1) Survivors (Staphylococcus aureus [2]; MPO 25 μg/mL, AA 5 mM, 30 min)	Log 10 (CFU + 1) Survivors (Staphylococcus aureus [2]; MPO 25 μg/mL, AA 5 mM, 60 min)	Log 10 (CFU + 1) Survivors (Staphylococcus aureus [2]; MPO 25 μg/mL, AA […], 30 min)	Log 10 (CFU + 1) Survivors (Staphylococcus aureus [2]; MPO 25 μg/mL, AA […], 60 min)	Log 10 (CFU + 1) Survivors (Staphylococcus aureus [2]; MPO 100 μg/mL, AA 5 mM, 30 min)	Log 10 (CFU + 1) Survivors (Staphylococcus aureus [2]; MPO 100 μg/mL, AA 5 mM, 60 min)	Log 10 (CFU + 1) Survivors (Staphylococcus aureus [2]; [4])	Log 10 (CFU + 1) Survivors (Staphylococcus aureus [2]; [5])	Average Viability CFU/ml 60 min (Staphylococcus aureus [2]; [6])	Log Reduction 60 min (Staphylococcus aureus [2]; [6])	Average Viability CFU/ml 50 min (Staphylococcus aureus [2]; [8])	Log Reduction 50 min (Staphylococcus aureus [2]; [8])	Average Viability CFU/ml 50 min (Staphylococcus aureus [2]; [9])	Log Reduction 50 min (Staphylococcus aureus [2]; [9])	log reduction at 5000 µM (Staphylococcus aureus [1]; [3])	Average Viability CFU/ml 60 min (Staphylococcus aureus [2]; [10])	Log Reduction 60 min (Staphylococcus aureus [2]; [10])	further results
N=C(N)NCCC[C@@H](N)C(=O)O [D-Arginine]	21500000 CFU/ml	6.9	6.7	7.0	5.9	6.9	0.0	7.0	6.8	0 CFU/ml	7.4	14650000 CFU/ml	0.3	15000000 CFU/ml	0.3				log reduction at 5000 µM (Staphylococcus aureus [1]): 0.1; Average Viability CFU/ml 50 min (Staphylococcus aureus [2]; [7]): 14200000 CFU/ml; Log Reduction 50 min (Staphylococcus aureus [2]; [7]): 0.2; enhancement of MPO microbicidal activity (in words) (Staphylococcus aureus [2]; amino acid 5 mM, MPO 38 U/ml, GO 33.3 U/ml, blood): highly active
N[C@H](CC(=O)O)C(=O)O [D-Aspartic acid]	20900000 CFU/ml									570000 CFU/ml	1.6					0.1			
N[C@H](CCC(=O)O)C(=O)O [D-Glutamic acid]	26200000 CFU/ml																955000 CFU/ml	1.4	log reduction at 5000 µM (Staphylococcus aureus [1]): 0
NC(=O)CC[C@@H](N)C(=O)O [D-Glutamine]	20500000 CFU/ml	7.3	7.0	7.2	7.0	5.0	0.0	6.8	4.0	18 CFU/ml	6.1	15500000 CFU/ml	0.2	15050000 CFU/ml	0.3	0.1			Average Viability CFU/ml 50 min (Staphylococcus aureus [2]; [7]): 14750000 CFU/ml; Log Reduction 50 min (Staphylococcus aureus [2]; [7]): 0.2
N[C@H](Cc1c[nH]cn1)C(=O)O [D-Histidine]	22300000 CFU/ml	7.0	6.0	6.9	5.8	5.1	4.1	6.8	3.9	10900 CFU/ml	3.4	8000000 CFU/ml	0.5			0			
CC[C@@H](C)[C@@H](N)C(=O)O [D-Isoleucine]	21300000 CFU/ml	0.0	0.0	6.0	1.1	0.0	0.0	0.0	0.0	0 CFU/ml	7.4	196000 CFU/ml	2.1			0.1			Average Viability CFU/ml 50 min (Staphylococcus aureus [2]; [11]): 196000 CFU/ml; Log Reduction 50 min (Staphylococcus aureus [2]; [11]): 2.1; Average Viability CFU/ml 50 min (Staphylococcus aureus [2]; [12]): 196000 CFU/ml; Log Reduction 50 min (Staphylococcus aureus [2]; [12]): 2.1; CFU survivors, amino acid acting separately (Staphylococcus aureus [2]; standard conditions of Example 5 (2.5 μmol/mL; MPO 4.7 U/mL; GO 4.2 U/mL)): 196000 CFU
CC(C)C[C@@H](N)C(=O)O [D-Leucine]	24400000 CFU/ml	3.8	2.2	6.7	2.1	2.7	2.0	1.8	1.9			313000 CFU/ml	1.9	163500 CFU/ml	2.2	0	66550 CFU/ml	2.6	Average Viability CFU/ml 50 min (Staphylococcus aureus [2]; [13]): 119000 CFU/ml; Log Reduction 50 min (Staphylococcus aureus [2]; [13]): 2.3; Average Viability CFU/ml 50 min (Staphylococcus aureus [2]; [11]): 215000 CFU/ml; Log Reduction 50 min (Staphylococcus aureus [2]; [11]): 2.1
NCCCC[C@@H](N)C(=O)O [D-Lysine]	25100000 CFU/ml																5050000 CFU/ml	0.7	log reduction at 5000 µM (Staphylococcus aureus [1]): 0
CSCC[C@@H](N)C(=O)O [D-Methionine]	21100000 CFU/ml									9400000 CFU/ml	0.4					0.1			
N[C@H](Cc1ccccc1)C(=O)O [D-Phenylalanine]	24200000 CFU/ml	5.1	0.0	7.2	4.9	0.0	0.0	0.0	0.0	0 CFU/ml	7.4	9300000 CFU/ml	0.5	7950000 CFU/ml	0.5	0			Average Viability CFU/ml 50 min (Staphylococcus aureus [2]; [7]): 7950000 CFU/ml; Log Reduction 50 min (Staphylococcus aureus [2]; [7]): 0.5; Average Viability CFU/ml 50 min (Staphylococcus aureus [2]; [13]): 8850000 CFU/ml; Log Reduction 50 min (Staphylococcus aureus [2]; [13]): 0.4; Average Viability CFU/ml 50 min (Staphylococcus aureus [2]; [11]): 8700000 CFU/ml; Log Reduction 50 min (Staphylococcus aureus [2]; [11]): 0.5
O=C(O)[C@H]1CCCN1 [D-Proline]	21400000 CFU/ml	6.9	2.4	7.3	3.7	5.7	2.7	4.8	0.0			1890000 CFU/ml	1.2			0.1	830 CFU/ml	4.5	
N[C@H](CO)C(=O)O [D-Serine]	23100000 CFU/ml	6.8	6.5	6.7	6.0	6.0	0.0	6.0	3.9	0 CFU/ml	7.4	945000 CFU/ml	1.5			0			
